Active and inactive are the calls of the source. The rule behind the calls is not given here.
Experiments:
Beta-secretase 1 [1] = target: T1, Beta-secretase 1 (Homo sapiens, UniProt P56817); assay: Inhibition human BACE1 expressed in baculovirus expression system using Panvera peptide as substrate measured after 60 mins by fluorescence assay
Beta-secretase 1 [2] = target: T1, Beta-secretase 1; assay: Inhibition human BACE1 expressed in baculovirus expression system at 5 uM using Panvera peptide as substrate measured after 60 mins by fluorescence assay relative to control; settings: 1 h; for inhibition (INH): 5 µM
Acetylcholinesterase [3] = target: T2, Acetylcholinesterase (Homo sapiens, UniProt P22303)
T2 sequence (P22303 whole entry): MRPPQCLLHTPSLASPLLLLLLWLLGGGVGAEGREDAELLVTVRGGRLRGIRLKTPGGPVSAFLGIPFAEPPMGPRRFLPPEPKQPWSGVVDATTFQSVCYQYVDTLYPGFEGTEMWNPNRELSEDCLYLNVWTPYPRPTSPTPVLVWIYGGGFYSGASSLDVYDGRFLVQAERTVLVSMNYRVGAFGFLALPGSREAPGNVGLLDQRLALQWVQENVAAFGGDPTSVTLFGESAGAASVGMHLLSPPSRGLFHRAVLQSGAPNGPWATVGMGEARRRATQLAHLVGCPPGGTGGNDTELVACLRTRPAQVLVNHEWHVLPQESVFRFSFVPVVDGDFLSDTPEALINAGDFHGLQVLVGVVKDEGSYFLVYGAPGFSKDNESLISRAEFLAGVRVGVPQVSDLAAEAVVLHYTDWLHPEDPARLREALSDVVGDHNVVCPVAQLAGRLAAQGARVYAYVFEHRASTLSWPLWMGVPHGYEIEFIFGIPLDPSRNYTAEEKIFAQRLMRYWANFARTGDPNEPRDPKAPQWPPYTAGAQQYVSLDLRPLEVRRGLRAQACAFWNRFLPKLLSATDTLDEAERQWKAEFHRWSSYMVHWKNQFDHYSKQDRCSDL
Description: (§1) Inhibition of recombinant human AChE expressed in HEK293 cells using acetylthiocholine iodide as substrate preincubated for 15 mins followed by substrate addition by Ellman's method

Cholinesterase [4] = target: T3, Cholinesterase (Homo sapiens, UniProt P06276)
T3 sequence (P06276 whole entry): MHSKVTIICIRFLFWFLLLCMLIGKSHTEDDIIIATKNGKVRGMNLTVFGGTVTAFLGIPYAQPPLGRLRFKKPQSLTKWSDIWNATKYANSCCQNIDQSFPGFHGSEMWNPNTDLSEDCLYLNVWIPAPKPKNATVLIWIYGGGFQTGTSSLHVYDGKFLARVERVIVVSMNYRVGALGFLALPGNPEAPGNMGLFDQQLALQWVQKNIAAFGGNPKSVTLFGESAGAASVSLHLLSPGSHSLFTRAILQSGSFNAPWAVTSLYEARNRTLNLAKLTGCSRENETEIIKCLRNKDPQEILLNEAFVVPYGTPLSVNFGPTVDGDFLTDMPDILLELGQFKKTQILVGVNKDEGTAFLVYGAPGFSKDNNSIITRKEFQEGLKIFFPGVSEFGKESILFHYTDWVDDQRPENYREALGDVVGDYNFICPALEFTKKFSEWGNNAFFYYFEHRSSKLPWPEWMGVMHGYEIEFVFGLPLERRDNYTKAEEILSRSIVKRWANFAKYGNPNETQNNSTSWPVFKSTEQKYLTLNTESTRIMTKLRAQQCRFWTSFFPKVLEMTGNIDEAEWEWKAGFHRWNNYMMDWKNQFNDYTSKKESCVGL
Description: (§2) Inhibition of recombinant human BChE using butyrylthiocholine iodide as substrate preincubated for 15 mins followed by substrate addition by Ellman's method

in vitro = settings: PAMPA
Description: Permeability of compound in PBS/EtOH buffer (7:3) PAMPA-BBB assay

Cholinesterase [5] = target: T3, Cholinesterase; assay: Potency index, ratio of tacrine IC50 to test compound IC50 for recombinant human BChE
Acetylcholinesterase [6] = target: T2, Acetylcholinesterase; assay: Mixed inhibition of recombinant human AChE expressed in HEK293 cells assessed as dissociation constant for enzyme-inhibitor complex using varying levels of acetylthiocholine iodide as substrate preincubated for 15 mins followed by substrate addition by Line-weaver Burk plot analysis
Acetylcholinesterase [7] = target: T2, Acetylcholinesterase; assay: Mixed inhibition of recombinant human AChE expressed in HEK293 cells assessed as dissociation constant for enzyme-substrate-inhibitor complex using varying levels of acetylthiocholine iodide as substrate preincubated for 15 mins followed by substrate addition by Line-weaver Burk plot analysis
Acetylcholinesterase [8] = target: Acetylcholinesterase (Electrophorus electricus, UniProt O42275); assay: Displacement of propidium iodide from PAS region of electric eel AChE by fluorescence assay
Acetylcholinesterase (Electrophorus electricus, UniProt O42275), sequence (O42275 whole entry): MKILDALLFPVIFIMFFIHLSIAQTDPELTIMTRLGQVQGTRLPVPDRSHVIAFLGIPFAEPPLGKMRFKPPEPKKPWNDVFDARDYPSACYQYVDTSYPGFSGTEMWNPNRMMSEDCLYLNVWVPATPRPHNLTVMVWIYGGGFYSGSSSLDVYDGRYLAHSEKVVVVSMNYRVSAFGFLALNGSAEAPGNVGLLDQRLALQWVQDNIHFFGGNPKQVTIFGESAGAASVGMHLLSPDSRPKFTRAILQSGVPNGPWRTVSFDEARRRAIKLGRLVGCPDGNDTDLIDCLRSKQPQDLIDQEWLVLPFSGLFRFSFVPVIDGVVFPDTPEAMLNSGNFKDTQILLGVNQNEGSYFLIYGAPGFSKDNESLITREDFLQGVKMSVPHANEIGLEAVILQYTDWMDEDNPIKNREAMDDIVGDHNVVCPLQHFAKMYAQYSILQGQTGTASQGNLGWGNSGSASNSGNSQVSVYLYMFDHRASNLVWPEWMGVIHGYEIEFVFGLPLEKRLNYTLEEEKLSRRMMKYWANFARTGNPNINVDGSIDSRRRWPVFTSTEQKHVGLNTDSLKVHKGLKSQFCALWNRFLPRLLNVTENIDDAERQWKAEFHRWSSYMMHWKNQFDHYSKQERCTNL

Acetylcholinesterase [9] = target: T2, Acetylcholinesterase; assay: Inhibition of recombinant human AChE expressed in HEK293 cells at 100 uM using acetylthiocholine iodide as substrate preincubated for 15 mins followed by substrate addition by Ellman's method
Cholinesterase [10] = target: T3, Cholinesterase; assay: Inhibition of recombinant human BChE at 100 uM using butyrylthiocholine iodide as substrate preincubated for 15 mins followed by substrate addition by Ellman's method
[11] = Drug level in human liver microsomes treated with N-{8-[(6-Chloro-1,2,3,4-tetrahydroacridin-9-yl)amino]octyl}-2-(6-hydroxy-7-methoxy-2-methylchroman-2-yl)acetamide at 5 uM measured up to 60 mins by UPLC-MS/MS analysis; format: ADME, Microsome; settings: 1 h
[12] = Drug level in mouse liver microsomes treated with N-{8-[(6-Chloro-1,2,3,4-tetrahydroacridin-9-yl)amino]octyl}-2-(6-hydroxy-7-methoxy-2-methylchroman-2-yl)acetamide at 5 uM measured up to 60 mins by UPLC-MS/MS analysis; format: ADME, Microsome; settings: 1 h
[13] = Drug level in rat liver microsomes treated with N-{8-[(6-Chloro-1,2,3,4-tetrahydroacridin-9-yl)amino]octyl}-2-(6-hydroxy-7-methoxy-2-methylchroman-2-yl)acetamide at 5 uM measured up to 60 mins by UPLC-MS/MS analysis; format: ADME, Microsome; settings: 1 h
Acetylcholinesterase [14] = target: T2, Acetylcholinesterase; settings: hek293
Description: as §1

Cholinesterase [15] = target: T3, Cholinesterase; remark: listed apart in the source
Description: as §2

Acetylcholinesterase [16] = target: T2, Acetylcholinesterase; assay: Potency index, ratio of tacrine IC50 to test compound IC50 for recombinant human AChE expressed in HEK293 cells; format: cell-based

T1 sequence (P56817 whole entry): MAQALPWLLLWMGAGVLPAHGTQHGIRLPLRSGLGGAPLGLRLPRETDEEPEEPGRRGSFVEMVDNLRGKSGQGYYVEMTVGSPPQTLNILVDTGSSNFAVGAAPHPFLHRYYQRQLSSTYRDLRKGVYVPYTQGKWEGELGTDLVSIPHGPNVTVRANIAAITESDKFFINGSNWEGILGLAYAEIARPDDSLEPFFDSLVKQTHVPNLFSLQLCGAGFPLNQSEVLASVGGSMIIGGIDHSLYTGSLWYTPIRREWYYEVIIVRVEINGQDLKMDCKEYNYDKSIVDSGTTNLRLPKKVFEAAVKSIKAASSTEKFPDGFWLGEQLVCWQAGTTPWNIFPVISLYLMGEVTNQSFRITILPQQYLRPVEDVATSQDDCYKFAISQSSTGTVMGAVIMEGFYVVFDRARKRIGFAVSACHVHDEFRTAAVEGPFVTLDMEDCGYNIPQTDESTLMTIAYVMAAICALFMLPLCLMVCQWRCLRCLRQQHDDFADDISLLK

Row | SMILES | IC50 (Beta-secretase 1 [1]) | inhibition (INH) (Beta-secretase 1 [2]) | IC50 (Acetylcholinesterase [3]) [nM] | IC50 (Cholinesterase [4]) [nM] | Papp (in vitro) [×10⁻⁶ cm/s] | Ratio IC50 (Cholinesterase [5]) | also measured
1 | COc1cc2c(cc1O)CCC(C)(CC(=O)NCCOCCOCCNc1c3c(nc4cc(Cl)ccc14)CCCC3)O2 (configuration not stated) | Not Active | Not Active | 47.9 | 1840 | 7 |  | 
2 | COc1cc2c(cc1O)CCC(C)(CCNCCCCCCCCNc1c3c(nc4cc(Cl)ccc14)CCCC3)O2 (configuration not stated) |  |  | 0.12 | 13.4 | 12.5 | 2 | Ki (Acetylcholinesterase [6]): 0.132 nM; Ki (Acetylcholinesterase [7]): 0.258 nM; Kd (Acetylcholinesterase [8]): 2030 nM; inhibition at 5 µM (Beta-secretase 1 [2]): 24.8%
3 | COc1cc2c(cc1OCc1ccccc1)CCC(C)(CC(=O)NCCCCCCCNc1c3c(nc4cc(Cl)ccc14)CCCC3)O2 (configuration not stated) |  |  | 6.99 | 51 | 11.5 |  | IC50 (Beta-secretase 1 [1]; read-out: IC50): 12500 nM
4 | COc1cc2c(cc1O)CCC(C)(CCN)O2 (configuration not stated) |  |  | 101000 | 23200 | 1 |  | inhibition (Acetylcholinesterase [9]): inactive; inhibition (Cholinesterase [10]): inactive
5 | Nc1c2c(nc3cc(Cl)ccc13)CCCC2 |  |  |  |  | 26.1 |  | Drug metabolism [11]: Metabolite_Detected; Drug metabolism [12]: Metabolite_Detected; Drug metabolism [13]: Metabolite_Detected
6 | COc1cc2c(cc1OCc1ccccc1)CCC(C)(CC(=O)NCCCCCCNc1c3c(nc4cc(Cl)ccc14)CCCC3)O2 (configuration not stated) |  |  | 11 | 201 | 10.7 |  | IC50 (Beta-secretase 1 [1]; read-out: IC50): 18000 nM
7 | COc1cc2c(cc1OCc1ccccc1)CCC(C)(CC(=O)NCCCCCCCCCNc1c3c(nc4cc(Cl)ccc14)CCCC3)O2 (configuration not stated) |  |  | 7.89 | 30.6 | 10.4 |  | IC50 (Beta-secretase 1 [1]; read-out: IC50): 7190 nM
8 | COc1cc2c(cc1O)CCC(C)(CC(=O)NCCCCCCCNc1c3c(nc4cc(Cl)ccc14)CCCC3)O2 (configuration not stated) | Not Active | Not Active | 5.43 | 79.1 | 9.7 |  | 
9 | COc1cc(O)c(CCC(C)(O)CC(=O)NCCCCCCCCNc2c3c(nc4cc(Cl)ccc24)CCCC3)cc1O (configuration not stated) |  |  |  |  |  |  | Drug metabolism [11]: Metabolite_Detected; Drug metabolism [12]: Metabolite_Detected; Drug metabolism [13]: Metabolite_Detected
10 | COc1cc2c(cc1O)CCC(C)(CCNCCCCCCCCCNc1c3c(nc4cc(Cl)ccc14)CCCC3)O2 (configuration not stated) |  |  | 0.27 | 18.3 | 10.1 | 2 | inhibition at 5 µM (Beta-secretase 1 [2]): 28.1%
11 | COC1=CC(=O)C(CCC(C)(O)CC(=O)NCCCCCCCCNc2c3c(nc4cc(Cl)ccc24)CCCC3)=CC1=O (configuration not stated) |  |  |  |  |  |  | Drug metabolism [11]: Metabolite_Detected; Drug metabolism [12]: Metabolite_Detected; Drug metabolism [13]: Metabolite_Detected
12 | COc1cc2c(cc1O)CCC(C)(CCNCCOCCOCCNc1c3c(nc4cc(Cl)ccc14)CCCC3)O2 (configuration not stated) |  |  | 8.35 | 180 | 9.7 |  | inhibition at 5 µM (Beta-secretase 1 [2]): 19.9%
13 | COc1cc2c(cc1O)CCC(C)(CCC(=O)NCCCCCCCCNc1c3c(nc4cc(Cl)ccc14)CCCC3)O2 (configuration not stated) | Not Active | Not Active | 6.23 | 148 | 8.7 |  | 
14 | COc1cc2c(cc1O)CCC(C)(CC(=O)O)O2 (configuration not stated) |  |  |  |  | 0.4 |  | IC50 (Acetylcholinesterase [14]): Not Active; IC50 (Cholinesterase [15]): Not Active
15 | COc1cc2c(cc1O)CCC(C)(CC(=O)NCCCCCCCNc1c3c(nc4ccccc14)CCCC3)O2 (configuration not stated) | Not Active | Not Active | 111 | 4.28 | 6.6 | 7 | Ratio IC50 (Acetylcholinesterase [16]): < 5
16 | COc1cc2c(cc1O)CCC(C)(CC(=O)NCCCCCCNc1c3c(nc4ccccc14)CCCC3)O2 (configuration not stated) | Not Active | Not Active | 275 | 4.99 | 4.3 | 7 | Ratio IC50 (Acetylcholinesterase [16]): < 5
17 | COc1cc2c(cc1O)CCC(C)(CC(=O)NCCCCCCCCCNc1c3c(nc4ccccc14)CCCC3)O2 (configuration not stated) |  |  | 57.8 | 5.36 | 8.9 | 7 | Ratio IC50 (Acetylcholinesterase [16]): < 5; inhibition at 5 µM (Beta-secretase 1 [2]): 6.75%
18 | COc1cc2c(cc1O)CCC(C)(CCNCCCCCCCNc1c3c(nc4cc(Cl)ccc14)CCCC3)O2 (configuration not stated) | Not Active | Not Active | 0.44 | 17.4 | 10.3 | 2 | 
19 | COc1cc2c(cc1O)CCC(C)(CCC(=O)NCCCCCCNc1c3c(nc4cc(Cl)ccc14)CCCC3)O2 (configuration not stated) | Not Active | Not Active | 3.8 | 102 | 7.8 |  | 
20 | COc1cc2c(cc1O)CCC(C)(CC(=O)NCCCCCCCCNc1c3c(nc4ccccc14)CCCC3)O2 (configuration not stated) | Not Active | Not Active | 69.8 | 5.33 | 7.3 | 7 | Ratio IC50 (Acetylcholinesterase [16]): < 5
21 | COc1cc2c(cc1O)CCC(C)(CCC(=O)NCCCCCCCNc1c3c(nc4cc(Cl)ccc14)CCCC3)O2 (configuration not stated) |  |  | 7.94 | 187 | 8.3 |  | inhibition at 5 µM (Beta-secretase 1 [2]): 14%
22 | COC1=CC(=O)C2(CCC(C)(CC(=O)NCCCCCCCCNc3c4c(nc5cc(Cl)ccc35)CCCC4)O2)CC1=O (configuration not stated) |  |  |  |  |  |  | Drug metabolism [11]: Metabolite_Detected; Drug metabolism [12]: Metabolite_Detected; Drug metabolism [13]: Metabolite_Detected
23 | COc1cc2c(cc1O)CCC(C)(CC(=O)NCCCCCCCCCNc1c3c(nc4cc(Cl)ccc14)CCCC3)O2 (configuration not stated) | Not Active | Not Active | 2.05 | 168 | 8.2 |  | 

— ChEMBL document CHEMBL4725294, “Centrally Active Multitarget Anti-Alzheimer Agents Derived from the Antioxidant Lead CR-6” (J Med Chem, 2020)
